In EP4741383A1, “COMPOUND AND USE THEREOF AS ANTI-CANCER DRUG” (Tyligand Bioscience (Shanghai) Limited, priority 2023, dated 2025):

Each molecule was assayed against FAP1 (assay: Tyrosine phosphatase selectivity (pNPP substrate), FAP1). Settings: selectivity ratio FAP1 over SHP2.
Format: biochemical
Procedure: (§1) This experiment evaluated the selectivity of the disclosed compounds against tyrosine phosphatases, including SHP1, HePTP, Laforin, LMWPTP, LYP, PTP1B, PRL2, SSU72, VHR, FAP1, STEP, CDC14A, CD45, MEG2, and PP5, all expressed and purified from E. coli.
(§2) Phosphatase activity was measured using p-nitrophenyl phosphate (pNPP) (Fisher Scientific) as the substrate in 50 mM 3,3-dimethylglutaric acid buffer (pH 7.0, containing 1 mM EDTA), with ionic strength adjusted to 0.15 M with NaCl. […] After 10-60 minutes, the reaction was quenched by adding 20 µL of 5 N NaOH. Wells without enzyme were used as controls for correction. The amount of the product, p-nitrophenol, was determined by measuring the absorbance at 405 nm using a Spectra MAX340 microplate spectrophotometer (Molecular Devices), with a molar extinction coefficient of 18000 M^-1cm^-1.
(§3) Data were analyzed using GraphPad Prism software. Dose-response curves were obtained by fitting data using the nonlinear S-curve regression Dose-response-inhibition equation, and IC50 values were calculated.

SMILES | IC50PTP/IC50SHP2 FAP1
CC1(n2c(-c3ccc(NC(=O)C(=O)Nc4ccc(N5CCC6(CCOC6)CC5)cc4)cc3)cc3cc(F)c(-c4nnn[nH]4)cc32)CCC1 [Example 68] | 11.7
O=C(Nc1ccc(-c2oc3cc(F)c(-c4nnn[nH]4)cc3c2C2CCC2)cc1)C(=O)Nc1ccc(N2CCC3(CCOC3)CC2)cc1 [Example 125] | 145.9

Each molecule was assayed against T1, FAP1 (Homo sapiens, UniProt Q12923) in the same assay as above. Settings: FAP1, pNPP substrate.
T1 sequence (Q12923 2163-2477): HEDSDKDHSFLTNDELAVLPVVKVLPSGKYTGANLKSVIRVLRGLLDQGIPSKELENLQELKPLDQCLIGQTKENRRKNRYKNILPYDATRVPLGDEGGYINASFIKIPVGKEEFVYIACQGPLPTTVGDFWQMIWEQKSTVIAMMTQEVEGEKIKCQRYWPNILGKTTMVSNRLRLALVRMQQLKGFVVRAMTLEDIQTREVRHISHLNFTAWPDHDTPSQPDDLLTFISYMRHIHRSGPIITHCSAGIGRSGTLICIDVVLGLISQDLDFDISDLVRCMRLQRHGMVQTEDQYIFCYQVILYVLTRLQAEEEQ
Format: biochemical
Procedure: as §1, §2, §3

SMILES | IC50
CC1(n2c(-c3ccc(NC(=O)C(=O)Nc4ccc(N5CCC6(CCOC6)CC5)cc4)cc3)cc3cc(F)c(-c4nnn[nH]4)cc32)CCC1 [Example 68] | 560 nM
O=C(Nc1ccc(-c2oc3cc(F)c(-c4nnn[nH]4)cc3c2C2CCC2)cc1)C(=O)Nc1ccc(N2CCC3(CCOC3)CC2)cc1 [Example 125] | 7440 nM

These molecules were tested against T2, SHP1 (Homo sapiens, UniProt P29350) (assay: Tyrosine phosphatase selectivity (pNPP substrate), SHP1). Settings: SHP1, pNPP substrate.
T2 construct: made in house; host or cells: E. coli
Format: biochemical
Procedure: as §1, §2, §3

T2 sequence (P29350 whole entry): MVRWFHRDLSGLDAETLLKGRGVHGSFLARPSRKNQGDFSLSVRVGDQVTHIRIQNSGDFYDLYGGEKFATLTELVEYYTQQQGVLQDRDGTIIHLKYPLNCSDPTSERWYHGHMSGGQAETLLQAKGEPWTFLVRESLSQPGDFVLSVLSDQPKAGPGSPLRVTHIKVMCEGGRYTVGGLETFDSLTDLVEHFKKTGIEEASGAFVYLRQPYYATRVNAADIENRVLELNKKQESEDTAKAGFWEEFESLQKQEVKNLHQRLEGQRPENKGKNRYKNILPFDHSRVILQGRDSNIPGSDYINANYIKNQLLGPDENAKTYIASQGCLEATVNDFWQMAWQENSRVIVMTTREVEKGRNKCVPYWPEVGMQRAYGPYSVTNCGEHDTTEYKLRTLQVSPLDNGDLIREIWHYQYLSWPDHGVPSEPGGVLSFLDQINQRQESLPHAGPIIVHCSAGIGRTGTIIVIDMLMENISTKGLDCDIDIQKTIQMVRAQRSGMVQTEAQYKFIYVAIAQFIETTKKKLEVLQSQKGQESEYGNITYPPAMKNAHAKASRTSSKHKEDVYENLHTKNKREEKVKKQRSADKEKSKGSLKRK

SMILES | IC50
Cn1c(-c2cccc(NC(=O)C(=O)Nc3ccc(-c4ccsc4)cc3)c2)c(I)c2cc(C(=O)O)c(O)cc21 [Example 11a-1, reference compound] | 800 nM
CC1(n2c(-c3ccc(NC(=O)C(=O)Nc4ccc(N5CCC6(CCOC6)CC5)cc4)cc3)cc3cc(F)c(-c4nnn[nH]4)cc32)CCC1 [Example 68] | 383 nM
O=C(Nc1ccc(-c2oc3cc(F)c(-c4nnn[nH]4)cc3c2C2CCC2)cc1)C(=O)Nc1ccc(N2CCC3(CCOC3)CC2)cc1 [Example 125] | 170 nM

Same assay, conditions: selectivity ratio SHP1 over SHP2

SMILES | IC50PTP/IC50SHP2 SHP1
Cn1c(-c2cccc(NC(=O)C(=O)Nc3ccc(-c4ccsc4)cc3)c2)c(I)c2cc(C(=O)O)c(O)cc21 [Example 11a-1, reference compound] | 7.4
CC1(n2c(-c3ccc(NC(=O)C(=O)Nc4ccc(N5CCC6(CCOC6)CC5)cc4)cc3)cc3cc(F)c(-c4nnn[nH]4)cc32)CCC1 [Example 68] | 8.0
O=C(Nc1ccc(-c2oc3cc(F)c(-c4nnn[nH]4)cc3c2C2CCC2)cc1)C(=O)Nc1ccc(N2CCC3(CCOC3)CC2)cc1 [Example 125] | 3.3

The molecules below were run against T3, CDC14A (Homo sapiens, UniProt Q9UNH5) (assay: Tyrosine phosphatase selectivity (pNPP substrate), CDC14A). Settings: CDC14A, pNPP substrate.
T3 construct: made in house; host or cells: E. coli
T3 sequence (Q9UNH5 1-594): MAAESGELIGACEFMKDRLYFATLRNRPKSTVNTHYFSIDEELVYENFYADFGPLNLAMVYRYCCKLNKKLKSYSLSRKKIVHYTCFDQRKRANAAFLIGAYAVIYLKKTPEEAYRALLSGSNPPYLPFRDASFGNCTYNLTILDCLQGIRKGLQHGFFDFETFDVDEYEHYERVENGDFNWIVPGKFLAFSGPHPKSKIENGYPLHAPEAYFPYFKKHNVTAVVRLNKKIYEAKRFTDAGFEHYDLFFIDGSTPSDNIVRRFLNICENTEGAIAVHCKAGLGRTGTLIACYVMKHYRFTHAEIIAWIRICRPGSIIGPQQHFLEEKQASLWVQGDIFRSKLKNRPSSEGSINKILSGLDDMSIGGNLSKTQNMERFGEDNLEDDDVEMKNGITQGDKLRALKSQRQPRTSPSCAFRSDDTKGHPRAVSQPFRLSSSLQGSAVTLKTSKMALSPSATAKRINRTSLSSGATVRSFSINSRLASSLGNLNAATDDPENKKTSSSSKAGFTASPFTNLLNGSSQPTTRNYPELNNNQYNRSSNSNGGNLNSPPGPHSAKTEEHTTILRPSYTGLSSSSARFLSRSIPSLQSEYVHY
Format: biochemical
Procedure: as §1, §2, §3

SMILES | IC50
Cn1c(-c2cccc(NC(=O)C(=O)Nc3ccc(-c4ccsc4)cc3)c2)c(I)c2cc(C(=O)O)c(O)cc21 [Example 11a-1, reference compound] | 16000 nM
CC1(n2c(-c3ccc(NC(=O)C(=O)Nc4ccc(N5CCC6(CCOC6)CC5)cc4)cc3)cc3cc(F)c(-c4nnn[nH]4)cc32)CCC1 [Example 68] | > 25000 nM
O=C(Nc1ccc(-c2oc3cc(F)c(-c4nnn[nH]4)cc3c2C2CCC2)cc1)C(=O)Nc1ccc(N2CCC3(CCOC3)CC2)cc1 [Example 125] | > 100000 nM

Same assay, conditions: selectivity ratio CDC14A over SHP2

SMILES | IC50PTP/IC50SHP2 CDC14A
Cn1c(-c2cccc(NC(=O)C(=O)Nc3ccc(-c4ccsc4)cc3)c2)c(I)c2cc(C(=O)O)c(O)cc21 [Example 11a-1, reference compound] | 148
CC1(n2c(-c3ccc(NC(=O)C(=O)Nc4ccc(N5CCC6(CCOC6)CC5)cc4)cc3)cc3cc(F)c(-c4nnn[nH]4)cc32)CCC1 [Example 68] | 520.8
O=C(Nc1ccc(-c2oc3cc(F)c(-c4nnn[nH]4)cc3c2C2CCC2)cc1)C(=O)Nc1ccc(N2CCC3(CCOC3)CC2)cc1 [Example 125] | 1960.8

What follows are molecules tested against T4, HePTP (Homo sapiens, UniProt P35236) (assay: Tyrosine phosphatase selectivity (pNPP substrate), HePTP). Settings: HePTP, pNPP substrate.
T4 construct: made in house; host or cells: E. coli
T4 sequence (P35236 1-360): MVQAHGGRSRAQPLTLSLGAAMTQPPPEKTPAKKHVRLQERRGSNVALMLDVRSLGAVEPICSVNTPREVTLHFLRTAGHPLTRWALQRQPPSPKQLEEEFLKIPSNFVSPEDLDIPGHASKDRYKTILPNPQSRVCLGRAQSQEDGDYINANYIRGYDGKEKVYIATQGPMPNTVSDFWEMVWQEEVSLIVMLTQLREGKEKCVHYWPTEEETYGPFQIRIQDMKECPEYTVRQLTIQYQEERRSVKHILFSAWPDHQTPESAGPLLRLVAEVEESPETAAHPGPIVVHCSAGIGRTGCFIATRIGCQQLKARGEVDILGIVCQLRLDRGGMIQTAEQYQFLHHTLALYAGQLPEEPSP
Format: biochemical
Procedure: as §1, §2, §3

SMILES | IC50
Cn1c(-c2cccc(NC(=O)C(=O)Nc3ccc(-c4ccsc4)cc3)c2)c(I)c2cc(C(=O)O)c(O)cc21 [Example 11a-1, reference compound] | 1030 nM
CC1(n2c(-c3ccc(NC(=O)C(=O)Nc4ccc(N5CCC6(CCOC6)CC5)cc4)cc3)cc3cc(F)c(-c4nnn[nH]4)cc32)CCC1 [Example 68] | 1170 nM
O=C(Nc1ccc(-c2oc3cc(F)c(-c4nnn[nH]4)cc3c2C2CCC2)cc1)C(=O)Nc1ccc(N2CCC3(CCOC3)CC2)cc1 [Example 125] | 35900 nM

Same assay, conditions: selectivity ratio HePTP over SHP2

SMILES | IC50PTP/IC50SHP2 HePTP
Cn1c(-c2cccc(NC(=O)C(=O)Nc3ccc(-c4ccsc4)cc3)c2)c(I)c2cc(C(=O)O)c(O)cc21 [Example 11a-1, reference compound] | 9.5
CC1(n2c(-c3ccc(NC(=O)C(=O)Nc4ccc(N5CCC6(CCOC6)CC5)cc4)cc3)cc3cc(F)c(-c4nnn[nH]4)cc32)CCC1 [Example 68] | 29.3
O=C(Nc1ccc(-c2oc3cc(F)c(-c4nnn[nH]4)cc3c2C2CCC2)cc1)C(=O)Nc1ccc(N2CCC3(CCOC3)CC2)cc1 [Example 125] | 703.9

These molecules were tested against T5, PRL2 (Homo sapiens, UniProt Q12974) (assay: Tyrosine phosphatase selectivity (pNPP substrate), PRL2). Settings: PRL2, pNPP substrate.
T5 construct: made in house; host or cells: E. coli
T5 sequence (Q12974 1-167): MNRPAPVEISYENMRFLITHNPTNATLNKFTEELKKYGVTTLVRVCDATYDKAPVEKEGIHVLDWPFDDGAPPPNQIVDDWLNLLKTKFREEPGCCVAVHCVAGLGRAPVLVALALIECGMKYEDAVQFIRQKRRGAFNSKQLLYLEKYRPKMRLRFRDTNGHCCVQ
Format: biochemical
Procedure: as §1, §2, §3

SMILES | IC50
CC1(n2c(-c3ccc(NC(=O)C(=O)Nc4ccc(N5CCC6(CCOC6)CC5)cc4)cc3)cc3cc(F)c(-c4nnn[nH]4)cc32)CCC1 [Example 68] | > 25000 nM
O=C(Nc1ccc(-c2oc3cc(F)c(-c4nnn[nH]4)cc3c2C2CCC2)cc1)C(=O)Nc1ccc(N2CCC3(CCOC3)CC2)cc1 [Example 125] | > 100000 nM

Same assay, conditions: selectivity ratio PRL2 over SHP2

SMILES | IC50PTP/IC50SHP2 PRL2
CC1(n2c(-c3ccc(NC(=O)C(=O)Nc4ccc(N5CCC6(CCOC6)CC5)cc4)cc3)cc3cc(F)c(-c4nnn[nH]4)cc32)CCC1 [Example 68] | 520.8
O=C(Nc1ccc(-c2oc3cc(F)c(-c4nnn[nH]4)cc3c2C2CCC2)cc1)C(=O)Nc1ccc(N2CCC3(CCOC3)CC2)cc1 [Example 125] | 1960.8

These molecules were tested against T6, LMWPTP (Homo sapiens, UniProt P24666) (assay: Tyrosine phosphatase selectivity (pNPP substrate), LMWPTP). Settings: LMPTP*, pNPP substrate.
T6 construct: made in house; host or cells: E. coli
T6 sequence (P24666 1-158): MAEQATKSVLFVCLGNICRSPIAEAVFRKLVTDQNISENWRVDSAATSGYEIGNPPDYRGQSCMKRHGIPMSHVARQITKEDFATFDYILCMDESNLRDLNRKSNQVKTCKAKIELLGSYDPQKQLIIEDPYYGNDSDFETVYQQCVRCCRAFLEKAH
Format: biochemical
Procedure: as §1, §2, §3

SMILES | IC50
Cn1c(-c2cccc(NC(=O)C(=O)Nc3ccc(-c4ccsc4)cc3)c2)c(I)c2cc(C(=O)O)c(O)cc21 [Example 11a-1, reference compound] | 2340 nM
CC1(n2c(-c3ccc(NC(=O)C(=O)Nc4ccc(N5CCC6(CCOC6)CC5)cc4)cc3)cc3cc(F)c(-c4nnn[nH]4)cc32)CCC1 [Example 68] | 370 nM
O=C(Nc1ccc(-c2oc3cc(F)c(-c4nnn[nH]4)cc3c2C2CCC2)cc1)C(=O)Nc1ccc(N2CCC3(CCOC3)CC2)cc1 [Example 125] | 2240 nM

Same assay, conditions: selectivity ratio LMPTP* over SHP2

SMILES | IC50PTP/IC50SHP2 LMPTP*
Cn1c(-c2cccc(NC(=O)C(=O)Nc3ccc(-c4ccsc4)cc3)c2)c(I)c2cc(C(=O)O)c(O)cc21 [Example 11a-1, reference compound] | 21.6
CC1(n2c(-c3ccc(NC(=O)C(=O)Nc4ccc(N5CCC6(CCOC6)CC5)cc4)cc3)cc3cc(F)c(-c4nnn[nH]4)cc32)CCC1 [Example 68] | 7.7
O=C(Nc1ccc(-c2oc3cc(F)c(-c4nnn[nH]4)cc3c2C2CCC2)cc1)C(=O)Nc1ccc(N2CCC3(CCOC3)CC2)cc1 [Example 125] | 43.9
